Results from PubChem BioAssay (NCI).
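Cells were grown in 96-well plates and exposed to each compound for 48 hours at five concentrations; endpoints were interpolated linearly between bracketing concentrations, or set to the highest concentration if not reached. GI50 = concentration required for 50% inhibition of growth. The concentration for full growth arrest is given as TGI.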

Experiments:
Test in all cases: inhibition of tumour cell growth, NCI panel, 48 h
[1] = tested on: 786-0 renal
[2] = tested on: A498 renal
[3] = tested on: A549 NSCLC
[4] = tested on: ACHN renal
[5] = tested on: CAKI-1 renal
[6] = tested on: CCRF-CEM leukemia
[7] = tested on: COLO 205 colon
[8] = tested on: DU-145 prostate
[9] = tested on: EKVX NSCLC
[10] = tested on: HCT-116 colon
[11] = tested on: HCT-15 colon
[12] = tested on: HL-60(TB) leukemia
[13] = tested on: HOP-92 NSCLC
[14] = tested on: HT29 colon
[15] = tested on: IGROV1 ovarian
[16] = tested on: K-562 leukemia
[17] = tested on: LOX IMVI melanoma
[18] = tested on: M14 melanoma
[19] = tested on: MCF7 breast
[20] = tested on: MDA-MB-231 breast
[21] = tested on: MDA-MB-435
[22] = tested on: MDA-N
[23] = tested on: MOLT-4 leukemia
[24] = tested on: NCI-H226 lung
[25] = tested on: NCI-H23 lung
[26] = tested on: NCI-H460 lung
[27] = tested on: NCI-H522 lung
[28] = tested on: NCI/ADR-RES ovarian
[29] = tested on: OVCAR-3 ovarian
[30] = tested on: OVCAR-4 ovarian
[31] = tested on: OVCAR-5 ovarian
[32] = tested on: OVCAR-8 ovarian
[33] = tested on: PC-3 prostate
[34] = tested on: RPMI-8226 leukemia
[35] = tested on: RXF 393 renal
[36] = tested on: SF-295 CNS
[37] = tested on: SF-539 CNS
[38] = tested on: SK-MEL-2 melanoma
[39] = tested on: SK-MEL-28 melanoma
[40] = tested on: SK-MEL-5 melanoma
[41] = tested on: SN12C renal
[42] = tested on: SNB-19 CNS
[43] = tested on: SR leukemia
[44] = tested on: SW-620 colon
[45] = tested on: TK-10 renal
[46] = tested on: U251 CNS
[47] = tested on: UACC-257 melanoma
[48] = tested on: UACC-62 melanoma
[49] = tested on: UO-31 renal
[50] = tested on: BT-549 breast
[51] = tested on: HCC-2998 colon
[52] = tested on: HOP-62 NSCLC
[53] = tested on: HS 578T breast
[54] = tested on: KM12 colon
[55] = tested on: MALME-3M melanoma
[56] = tested on: SF-268 CNS
[57] = tested on: SK-OV-3 ovarian
[58] = tested on: SNB-75 CNS
[59] = tested on: T-47D breast

C[C@]12CCC(N3CCCC3)CC1=CC[C@@H]1[C@@H]2CC[C@]2(C)C(O)[C@H](n3ccnc3)C[C@@H]12 (stereo partly specified)
TGI [1]: > 100000 nM
TGI [2]: > 100000 nM
TGI [3]: > 100000 nM
TGI [4]: > 100000 nM
TGI [5]: > 100000 nM
TGI [6]: > 100000 nM
TGI [7]: > 100000 nM
TGI [8]: > 100000 nM
TGI [9]: > 100000 nM
TGI [10]: > 100000 nM
TGI [11]: > 100000 nM
TGI [12]: 36100 nM
TGI [13]: > 100000 nM
TGI [14]: > 100000 nM
TGI [15]: > 100000 nM
TGI [16]: > 100000 nM
TGI [17]: > 100000 nM
TGI [18]: 34400 nM
TGI [19]: > 100000 nM
TGI [20]: > 100000 nM
TGI [21]: > 100000 nM
TGI [22]: > 100000 nM
TGI [23]: 83600 nM
TGI [24]: > 100000 nM
TGI [25]: > 100000 nM
TGI [26]: > 100000 nM
TGI [27]: > 100000 nM
TGI [28]: > 100000 nM
TGI [29]: > 100000 nM
TGI [30]: > 100000 nM
TGI [31]: > 100000 nM
TGI [32]: > 100000 nM
TGI [33]: > 100000 nM
TGI [34]: > 100000 nM
TGI [35]: 72800 nM
TGI [36]: > 100000 nM
TGI [37]: 46500 nM
TGI [38]: > 100000 nM
TGI [39]: 68500 nM
TGI [40]: > 100000 nM
TGI [41]: > 100000 nM
TGI [42]: > 100000 nM
TGI [43]: 43900 nM
TGI [44]: > 100000 nM
TGI [45]: > 100000 nM
TGI [46]: > 100000 nM
TGI [47]: > 100000 nM
TGI [48]: > 100000 nM
TGI [49]: > 100000 nM

CCN(CC)CC(O)CNc1c2ccc(Cl)cc2nc2ccc(OC)cc12 (stereo unspecified)
GI50 [1]: 549 nM
TGI [1]: 2050 nM
GI50 [2]: 1430 nM
TGI [2]: 2890 nM
GI50 [3]: 472 nM
TGI [3]: 2030 nM
GI50 [4]: 935 nM
TGI [4]: 3790 nM
GI50 [50]: 1630 nM
TGI [50]: 3050 nM
GI50 [5]: 656 nM
TGI [5]: 2330 nM
GI50 [6]: 673 nM
TGI [6]: 6880 nM
GI50 [7]: 528 nM
TGI [7]: 1680 nM
GI50 [8]: 710 nM
TGI [8]: 2210 nM
GI50 [9]: 407 nM
TGI [9]: 2080 nM
GI50 [51]: 549 nM
TGI [51]: 1770 nM
GI50 [10]: 367 nM
TGI [10]: 1410 nM
GI50 [11]: 679 nM
TGI [11]: 6430 nM
GI50 [12]: 960 nM
TGI [12]: 3320 nM
GI50 [52]: 1010 nM
TGI [52]: 2730 nM
GI50 [13]: 1300 nM
TGI [13]: 3840 nM
GI50 [53]: 1240 nM
TGI [53]: 3470 nM
GI50 [14]: 356 nM
TGI [14]: 1480 nM
GI50 [15]: 716 nM
TGI [15]: 3120 nM
GI50 [16]: 312 nM
TGI [16]: 979 nM
GI50 [54]: 512 nM
TGI [54]: 1860 nM
GI50 [17]: 589 nM
TGI [17]: 1790 nM
GI50 [18]: 1350 nM
TGI [18]: 2660 nM
GI50 [55]: 1630 nM
TGI [55]: 3350 nM
GI50 [19]: 621 nM
TGI [19]: 4400 nM
GI50 [20]: 972 nM
TGI [20]: 3060 nM
GI50 [21]: 923 nM
TGI [21]: 2250 nM
GI50 [23]: 369 nM
TGI [23]: 1580 nM
GI50 [24]: 886 nM
TGI [24]: 3010 nM
GI50 [25]: 852 nM
TGI [25]: 2530 nM
GI50 [26]: 327 nM
TGI [26]: 975 nM
GI50 [27]: 518 nM
TGI [27]: 1840 nM
GI50 [28]: 933 nM
TGI [28]: 3310 nM
GI50 [29]: 1710 nM
TGI [29]: 4260 nM
GI50 [30]: 704 nM
TGI [30]: 2250 nM
GI50 [31]: 1660 nM
TGI [31]: 5180 nM
GI50 [32]: 521 nM
TGI [32]: 2250 nM
GI50 [33]: 355 nM
TGI [33]: 1620 nM
GI50 [34]: 510 nM
TGI [34]: 1870 nM
GI50 [35]: 657 nM
TGI [35]: 1840 nM
GI50 [56]: 890 nM
TGI [56]: 2970 nM
GI50 [36]: 649 nM
TGI [36]: 2110 nM
GI50 [37]: 1430 nM
TGI [37]: 3050 nM
GI50 [38]: 1270 nM
TGI [38]: 2850 nM
GI50 [39]: 1720 nM
TGI [39]: 3100 nM
GI50 [40]: 1580 nM
TGI [40]: 2920 nM
GI50 [57]: 1020 nM
TGI [57]: 3640 nM
GI50 [41]: 540 nM
TGI [41]: 2680 nM
GI50 [42]: 632 nM
TGI [42]: 2700 nM
GI50 [58]: 970 nM
TGI [58]: 2380 nM
GI50 [43]: 338 nM
TGI [43]: 1070 nM
GI50 [44]: 393 nM
TGI [44]: 1650 nM
GI50 [59]: 1180 nM
TGI [59]: 2930 nM
GI50 [45]: 837 nM
TGI [45]: 3180 nM
GI50 [46]: 574 nM
TGI [46]: 2320 nM
GI50 [47]: 1750 nM
TGI [47]: 3270 nM
GI50 [48]: 1780 nM
TGI [48]: 3310 nM
GI50 [49]: 929 nM
TGI [49]: 3410 nM

CC(=O)c1c(Nc2cccc(F)c2)[nH]c2c(Cl)cc(Cl)c(Cl)c2c1=O
GI50 [1]: 471 nM
TGI [1]: > 100000 nM
GI50 [2]: 137 nM
TGI [2]: 611 nM
GI50 [3]: 479 nM
TGI [3]: > 100000 nM
GI50 [4]: 411 nM
TGI [4]: > 28600 nM
GI50 [50]: 457 nM
TGI [50]: 8310 nM
GI50 [5]: 259 nM
TGI [5]: 1830 nM
GI50 [6]: 346 nM
TGI [6]: > 100000 nM
GI50 [7]: 440 nM
TGI [7]: 2480 nM
GI50 [8]: 447 nM
TGI [8]: > 100000 nM
GI50 [9]: 333 nM
TGI [9]: > 100000 nM
GI50 [51]: 333 nM
TGI [51]: > 100000 nM
GI50 [10]: 302 nM
TGI [10]: > 44100 nM
GI50 [11]: 296 nM
TGI [11]: 2230 nM
GI50 [12]: 337 nM
TGI [12]: 1540 nM
GI50 [52]: 418 nM
TGI [52]: 11000 nM
GI50 [13]: 88.4 nM
TGI [13]: 477 nM
GI50 [53]: 278 nM
TGI [53]: > 100000 nM
GI50 [14]: 387 nM
TGI [14]: > 100000 nM
GI50 [15]: 440 nM
TGI [15]: > 100000 nM
GI50 [16]: 307 nM
TGI [16]: > 100000 nM
GI50 [54]: 346 nM
GI50 [17]: 487 nM
TGI [17]: 12800 nM
GI50 [18]: 366 nM
TGI [18]: 7130 nM
GI50 [55]: 264 nM
TGI [55]: 1020 nM
GI50 [19]: 309 nM
TGI [19]: > 100000 nM
GI50 [20]: 259 nM
TGI [20]: 1940 nM
GI50 [21]: 425 nM
TGI [21]: 8550 nM
GI50 [23]: 356 nM
GI50 [24]: 343 nM
TGI [24]: 2930 nM
GI50 [25]: 262 nM
TGI [25]: 1940 nM
GI50 [26]: 360 nM
TGI [26]: > 100000 nM
GI50 [27]: 289 nM
TGI [27]: > 100000 nM
GI50 [28]: 297 nM
TGI [28]: 9890 nM
GI50 [29]: 299 nM
TGI [29]: > 100000 nM
GI50 [30]: 361 nM
TGI [30]: > 100000 nM
GI50 [31]: 1220 nM
TGI [31]: > 100000 nM
GI50 [32]: 363 nM
TGI [32]: > 100000 nM
GI50 [33]: 257 nM
TGI [33]: 17600 nM
GI50 [34]: 232 nM
TGI [34]: 2180 nM
GI50 [35]: 326 nM
TGI [35]: 1950 nM
GI50 [56]: 333 nM
TGI [56]: > 100000 nM
GI50 [36]: 336 nM
TGI [36]: 1810 nM
GI50 [37]: 369 nM
GI50 [38]: 292 nM
TGI [38]: 1290 nM
GI50 [39]: 377 nM
TGI [39]: 4830 nM
GI50 [40]: 184 nM
TGI [40]: 433 nM
GI50 [57]: 263 nM
TGI [57]: 4860 nM
GI50 [41]: 289 nM
GI50 [42]: 384 nM
TGI [42]: > 100000 nM
GI50 [58]: 508 nM
TGI [58]: > 22000 nM
GI50 [43]: 697 nM
TGI [43]: > 100000 nM
GI50 [44]: 366 nM
TGI [44]: > 100000 nM
GI50 [59]: 288 nM
GI50 [45]: 554 nM
TGI [45]: > 100000 nM
GI50 [46]: 270 nM
TGI [46]: > 100000 nM
GI50 [47]: 363 nM
TGI [47]: 3150 nM
GI50 [48]: 253 nM
TGI [48]: 793 nM
GI50 [49]: 216 nM
TGI [49]: 5940 nM
